Source: patent publication US20180104223A1, “TREATMENT OF PAIN” (PROXIMAGEN LIMITED, priority 2015, published 2018)

Tests used:
[1] = tested on: CFA (Complete Freunds Adjuvant) Induced Hypersensitivity in Rat; assay: CFA induced hypersensitivity in rat, weight bearing (incapacitance tester); format: in vivo, rat (male Sprague Dawley)
Procedure: (3S)-Tetrahydrofuran-3-yl (4S)-4-isopropyl-1,4,6,7-tetrahydro-5H-imidazo[4,5-c]-pyridine-5-carboxylate was investigated (FIG. 1) in the CFA thermal hyperalgesia model, which is an established model for inflammatory pain. […] In more detail:
(§1) Assessment of the anti-hyperalgesic properties of (3S)-tetrahydrofuran-3-yl (4S)-4-isopropyl-1,4,6,7-tetrahydro-5H-imidazo[4,5-c]pyridine-5-carboxylate mesylate salt was determined through measurement of weight bearing following CFA induced hypersensitivity. Naive rats distribute their body weight equally between the two hind paws. However, when the injected (left) hind paw is painful, the weight is re-distributed so that less weight is put on the affected paw (decrease in weight bearing on injured paw). Weight bearing through each hind limb was measured using a rat incapacitance tester (Linton Instruments, UK). Rats were placed in the incapacitance tester with the hind paws on separate sensors and the average force exerted by both hind limbs was recorded over 4 seconds. The injection of CFA also induces an oedema that can be assessed by paw volume; this is measured using a plethysmometer. The rat's hind paw is placed into the cylinder containing a solution and the volume of displaced liquid determines the paw volume.
Naive male, Sprague Dawley rats were acclimatised with food and water available ad libitum. Habituation to the incapacitance tester was performed. Baseline weight bearing and paw volume recordings were taken prior to induction of insult. Inflammatory hypersensitivity was induced by intraplantar injection of CFA (100 ul of 1 mg/ml solution) into the left hind paw. A pre-treatment weight bearing and paw volume measurement was taken to assess hypersensitivity 23 hours post-CFA. Animals were then ranked and randomised according to CFA window in a Latin square design. (3S)-Tetrahydrofuran-3-yl (4S)-4-isopropyl-1,4,6,7-tetrahydro-5H-imidazo[4,5-c]pyridine-5-carboxylate mesylate salt was then given at 150, 250 and 500 mg/kg p.o. (dosed in water at 2 mL/Kg, pH ˜5-6), alongside vehicle and reference group (indomethacin), n=9-10 per group. Weight bearing was assessed in all groups 1, 2 and 4 hours post compound administration. Paw volume was assessed 4 hours post compound administration. Data was analysed by comparing treatment groups to control group at each time point.
Weight bearing (g) readings were taken for both right and left hind paws and the difference calculated. Data is expressed as % reversal of the hypersensitivity to pain, (post dose reading−pre dose reading)/(naïve reading−pre dose reading)×100, where naive weight bearing difference−pre dose weight bearing difference is defined as the CFA window to be reversed. Statistical analysis was conducted by means of repeated measures ANOVA followed by Planned comparison test using InVivoStat (invivostat.co.uk), (p<0.05 considered significant).

[2] = tested on: CFA induced oedema, hind paw; assay: CFA induced oedema in rat, paw volume (plethysmometer); format: in vivo, rat (male Sprague Dawley); conditions: 150, 250 and 500 mg/kg p.o., 4 hours post compound administration
Procedure: as §1
Naive male, Sprague Dawley rats were acclimatised with food and water available ad libitum. […] Weight bearing was assessed in all groups 1, 2 and 4 hours post compound administration. Paw volume was assessed 4 hours post compound administration. Data was analysed by comparing treatment groups to control group at each time point.

**Q.** What does the source list for CC(C)[C@H]1c2nc[nH]c2CCN1C(=O)O[C@H]1CCOC1.CS(=O)(=O)O [(3S)-Tetrahydrofuran-3-yl (4S)-4-isopropyl-1,4,6,7-tetrahydro-5H-imidazo[4,5-c]pyridine-5-carboxylate, Methananesulfonic Acid Salt]?
**A.** reversal of hypersensitivity (weight bearing) ([1]; 150 mg/kg p.o., rat, 1, 2 and 4 hours post dose): no significant reversal of hypersensitivity at any time point; reversal of hypersensitivity (weight bearing) ([1]; 250 mg/kg p.o., rat, 4 hours post dose): significant reversal; reversal of hypersensitivity (weight bearing) ([1]; 500 mg/kg p.o., rat, 1, 2 and 4 hours post dose): effective at all time points; time of maximum effect on hypersensitivity ([1]; 500 mg/kg p.o., rat, post dose): 4 h; effect on paw volume [2]: No effect

**Q.** For CC(C)[C@H]1c2[nH]cnc2CCN1C(=O)O[C@H]1CCOC1 [(3S)-Tetrahydrofuran-3-yl (4S)-4-isopropyl-1,4,6,7-tetrahydro-5H-imidazo[4,5-c]pyridine-5-carboxylate], which “efficacy compared with benchmark indomethacin in the CFA thermal hyperalgesia model” value ([1]; FIG. 1, summary statement) is on record?
**A.** comparably in efficacy to the gold standard benchmark indomethacin

**Q.** And the “efficacy in the CFA thermal hyperalgesia model (inflammatory pain)” value ([1]; FIG. 1, summary statement)?
**A.** effective in a dose-dependent manner
